Test results reported in PubChem BioAssay (NCI).
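The compound was tested at five concentrations on cells cultured in 96-well plates, with a 48-hour exposure period. TGI: concentration producing complete growth inhibition.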

Assays:
Test in all cases: NCI tumour cell line growth inhibition, 48 h
786-0 renal = test system: 786-0 renal
A498 renal = test system: A498 renal
A549 NSCLC = test system: A549 NSCLC
ACHN renal = test system: ACHN renal
BT-549 breast = test system: BT-549 breast
CAKI-1 renal = test system: CAKI-1 renal
CCRF-CEM leukemia = test system: CCRF-CEM leukemia
COLO 205 colon = test system: COLO 205 colon
DU-145 prostate = test system: DU-145 prostate
EKVX NSCLC = test system: EKVX NSCLC
HCC-2998 colon = test system: HCC-2998 colon
HCT-116 colon = test system: HCT-116 colon
HCT-15 colon = test system: HCT-15 colon
HL-60(TB) leukemia = test system: HL-60(TB) leukemia
HOP-62 NSCLC = test system: HOP-62 NSCLC
HOP-92 NSCLC = test system: HOP-92 NSCLC
HS 578T breast = test system: HS 578T breast
HT29 colon = test system: HT29 colon
IGROV1 ovarian = test system: IGROV1 ovarian
K-562 leukemia = test system: K-562 leukemia
KM12 colon = test system: KM12 colon
LOX IMVI melanoma = test system: LOX IMVI melanoma
M14 melanoma = test system: M14 melanoma
MALME-3M melanoma = test system: MALME-3M melanoma
MCF7 breast = test system: MCF7 breast
MDA-MB-231 breast = test system: MDA-MB-231 breast
MDA-MB-435 = test system: MDA-MB-435
MDA-N = test system: MDA-N
MOLT-4 leukemia = test system: MOLT-4 leukemia
NCI-H226 lung = test system: NCI-H226 lung
NCI-H23 lung = test system: NCI-H23 lung
NCI-H460 lung = test system: NCI-H460 lung
NCI-H522 lung = test system: NCI-H522 lung
NCI/ADR-RES ovarian = test system: NCI/ADR-RES ovarian
OVCAR-3 ovarian = test system: OVCAR-3 ovarian
OVCAR-4 ovarian = test system: OVCAR-4 ovarian
OVCAR-5 ovarian = test system: OVCAR-5 ovarian
OVCAR-8 ovarian = test system: OVCAR-8 ovarian
PC-3 prostate = test system: PC-3 prostate
RPMI-8226 leukemia = test system: RPMI-8226 leukemia
RXF 393 renal = test system: RXF 393 renal
SF-268 CNS = test system: SF-268 CNS
SF-295 CNS = test system: SF-295 CNS
SF-539 CNS = test system: SF-539 CNS
SK-MEL-2 melanoma = test system: SK-MEL-2 melanoma
SK-MEL-28 melanoma = test system: SK-MEL-28 melanoma
SK-MEL-5 melanoma = test system: SK-MEL-5 melanoma
SK-OV-3 ovarian = test system: SK-OV-3 ovarian
SN12C renal = test system: SN12C renal
SNB-19 CNS = test system: SNB-19 CNS
SNB-75 CNS = test system: SNB-75 CNS
SR leukemia = test system: SR leukemia
SW-620 colon = test system: SW-620 colon
T-47D breast = test system: T-47D breast
TK-10 renal = test system: TK-10 renal
U251 CNS = test system: U251 CNS
UACC-257 melanoma = test system: UACC-257 melanoma
UACC-62 melanoma = test system: UACC-62 melanoma
UO-31 renal = test system: UO-31 renal

## CC(C)Cn1cnc2c(Cl)nc3ccccc3c21
786-0 renal
  TGI: > 100 µM
A498 renal
  TGI: > 100 µM
A549 NSCLC
  TGI: > 100 µM
ACHN renal
  TGI: > 100 µM
BT-549 breast
  TGI: > 100 µM
CAKI-1 renal
  TGI: > 100 µM
CCRF-CEM leukemia
  TGI: > 100 µM
COLO 205 colon
  TGI: > 100 µM
DU-145 prostate
  TGI: > 100 µM
EKVX NSCLC
  TGI: > 100 µM
HCC-2998 colon
  TGI: > 100 µM
HCT-116 colon
  TGI: > 100 µM
HCT-15 colon
  TGI: > 100 µM
HL-60(TB) leukemia
  TGI: 62.9 µM
HOP-62 NSCLC
  TGI: > 100 µM
HOP-92 NSCLC
  TGI: > 100 µM
HS 578T breast
  TGI: > 100 µM
HT29 colon
  TGI: > 100 µM
IGROV1 ovarian
  TGI: > 100 µM
K-562 leukemia
  TGI: > 100 µM
KM12 colon
  TGI: > 100 µM
LOX IMVI melanoma
  TGI: > 100 µM
M14 melanoma
  TGI: > 100 µM
MALME-3M melanoma
  TGI: > 100 µM
MCF7 breast
  TGI: > 100 µM
MDA-MB-231 breast
  TGI: > 100 µM
MDA-MB-435
  TGI: > 100 µM
MDA-N
  TGI: > 100 µM
MOLT-4 leukemia
  TGI: > 100 µM
NCI-H226 lung
  TGI: > 100 µM
NCI-H23 lung
  TGI: > 100 µM
NCI-H460 lung
  TGI: > 100 µM
NCI-H522 lung
  TGI: > 100 µM
NCI/ADR-RES ovarian
  TGI: > 100 µM
OVCAR-3 ovarian
  TGI: > 100 µM
OVCAR-4 ovarian
  TGI: > 100 µM
OVCAR-5 ovarian
  TGI: > 100 µM
OVCAR-8 ovarian
  TGI: > 100 µM
PC-3 prostate
  TGI: > 100 µM
RPMI-8226 leukemia
  TGI: > 100 µM
RXF 393 renal
  TGI: > 100 µM
SF-268 CNS
  TGI: > 100 µM
SF-295 CNS
  TGI: > 100 µM
SF-539 CNS
  TGI: > 100 µM
SK-MEL-2 melanoma
  TGI: > 100 µM
SK-MEL-28 melanoma
  TGI: > 100 µM
SK-MEL-5 melanoma
  TGI: 42.2 µM
SK-OV-3 ovarian
  TGI: > 100 µM
SN12C renal
  TGI: > 100 µM
SNB-19 CNS
  TGI: > 100 µM
SNB-75 CNS
  TGI: 88 µM
SR leukemia
  TGI: 66.6 µM
SW-620 colon
  TGI: > 100 µM
T-47D breast
  TGI: > 100 µM
TK-10 renal
  TGI: > 100 µM
U251 CNS
  TGI: > 100 µM
UACC-257 melanoma
  TGI: > 100 µM
UACC-62 melanoma
  TGI: > 100 µM
UO-31 renal
  TGI: > 100 µM
